Results taken from patent publication US7410975B2, “Small molecule toll-like receptor (TLR) antagonists” (Coley Pharmaceutical Group, Inc., priority 2003, dated 2008).
Where a name gives a salt, the structure may show the parent alone.

Target: T1, human TLR8 (hTLR8) (Homo sapiens, UniProt Q9NR97)
T1 construct: expressed in transfected cells
T1 sequence (Q9NR97 27-1041): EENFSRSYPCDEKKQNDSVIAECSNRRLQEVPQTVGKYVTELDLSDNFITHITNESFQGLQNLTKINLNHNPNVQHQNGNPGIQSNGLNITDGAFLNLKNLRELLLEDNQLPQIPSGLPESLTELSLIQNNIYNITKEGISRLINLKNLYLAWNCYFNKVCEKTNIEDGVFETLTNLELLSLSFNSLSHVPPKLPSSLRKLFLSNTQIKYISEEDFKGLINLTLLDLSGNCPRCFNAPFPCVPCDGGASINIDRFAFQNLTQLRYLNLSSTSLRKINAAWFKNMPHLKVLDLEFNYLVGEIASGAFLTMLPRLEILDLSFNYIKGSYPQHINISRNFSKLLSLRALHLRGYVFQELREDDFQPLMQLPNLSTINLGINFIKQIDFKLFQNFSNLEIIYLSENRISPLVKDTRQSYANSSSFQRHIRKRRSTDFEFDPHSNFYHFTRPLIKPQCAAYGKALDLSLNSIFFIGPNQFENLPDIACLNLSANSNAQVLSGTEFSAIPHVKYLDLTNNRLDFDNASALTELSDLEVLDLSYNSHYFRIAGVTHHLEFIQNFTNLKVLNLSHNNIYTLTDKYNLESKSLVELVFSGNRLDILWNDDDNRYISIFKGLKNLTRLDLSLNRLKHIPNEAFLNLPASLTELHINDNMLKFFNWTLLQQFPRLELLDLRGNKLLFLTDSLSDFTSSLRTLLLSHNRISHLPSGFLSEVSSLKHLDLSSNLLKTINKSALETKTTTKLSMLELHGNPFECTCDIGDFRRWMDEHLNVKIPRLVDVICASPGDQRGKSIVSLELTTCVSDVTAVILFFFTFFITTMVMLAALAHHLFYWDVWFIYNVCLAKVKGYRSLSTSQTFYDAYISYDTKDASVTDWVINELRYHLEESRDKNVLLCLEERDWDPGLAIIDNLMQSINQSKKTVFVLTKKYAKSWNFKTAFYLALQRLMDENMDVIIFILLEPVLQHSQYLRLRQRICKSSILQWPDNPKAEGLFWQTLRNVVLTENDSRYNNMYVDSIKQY
Test: Antagonist screen, hTLR8-NFκB-293 cells, NF-κB-luciferase reporter, with EC50 of R848
Type: cell-based
Settings: for hTLR8 (inhibitory effect, antagonist score): compound at 0.5, 5, 50 μg/ml, EC50 concentration of R848, 16 h, NF-κB-luciferase; for hTLR8 (inhibitory effect): hTLR8-NFκB-293 cells, with EC50 of R848, compound at 0.5, 5 and 50 μg/ml

Compound: CN1CCc2cccc3c2[C@H]1Cc1ccc(O)c(O)c1-3.Cl [compound 101, Apomorphinehydrochloride (R, —)]
- hTLR8 (inhibitory effect, antagonist score): 11 (compounds for which there was clear down regulation only at 50 μg/ml)

Compound: CC(C)(C)c1ccc(C(O)CCCN2CCC(C(O)(c3ccccc3)c3ccccc3)CC2)cc1 (stereo not drawn) [compound 138, Terfenadine]
- hTLR8 (inhibitory effect, antagonist score): 11 (compounds for which there was clear down regulation only at 50 μg/ml)

Compound: CN(C)C(=O)C(CCN1CCC(O)(c2ccc(Cl)cc2)CC1)(c1ccccc1)c1ccccc1 [compound 144, Loperamidehydrochloride]
- hTLR8 (inhibitory effect, antagonist score): 11 (compounds for which there was clear down regulation only at 50 μg/ml)

Compound: COc1cc2cc3c4cc(OC)c(OC)cc4cc[n+]3c(C)c2cc1OC [compound 431, Coralyne chloridehydrate]
- hTLR8 (inhibitory effect): — (compounds for which there was no clear down regulation even at 50 μg/ml)

Compound: COc1ccc(Cc2nccc3cc(OC)c(OC)cc23)cc1OC.Cl [compound 583, Papaverinehydrochloride]
- hTLR8 (inhibitory effect): — (compounds for which there was no clear down regulation even at 50 μg/ml)

Compound: COc1ccc2cc3[n+](cc2c1OC)CCc1cc2c(cc1-3)OCO2.[Cl-] [compound 586, Berberine chloride]
- hTLR8 (inhibitory effect): 12 (compounds for which there was clear down regulation at 5 μg/ml and 50 μg/ml)

Compound: COc1cc2c(cc1O)C[C@H]1c3c(cc(O)c(OC)c3-2)CCN1C [compound 600, Boldine]
- hTLR8 (inhibitory effect, antagonist score): — (compounds for which there was no clear down regulation even at 50 μg/ml)

Compound: CN1CCc2cc3c(c4c2C1Cc1ccccc1-4)OCO3.Cl (stereo not drawn) [compound 669, Remerine hydrochloride]
- hTLR8 (inhibitory effect, antagonist score): — (compounds for which there was no clear down regulation even at 50 μg/ml)

Compound: COc1cc2nc(N3CCN(C(=O)C4CCCO4)CC3)nc(N)c2cc1OC.Cl (stereo not drawn) [compound 751, Terazosin hydrochloride]
- hTLR8 (inhibitory effect, antagonist score): — (compounds for which there was no clear down regulation even at 50 μg/ml)

Compound: CC[N+](C)(CC)CCC[n+]1c(-c2ccccc2)c2cc(N)ccc2c2ccc(N)cc21.[I-].[I-] [compound 792, Propidium iodide]
- hTLR8 (inhibitory effect): — (compounds for which there was no clear down regulation even at 50 μg/ml)

Compound: CN(C)CCN(Cc1ccc(Cl)cc1)c1ccccn1.Cl [compound 807, Chloro-pyraminehydrochloride]
- hTLR8 (inhibitory effect): — (compounds for which there was no clear down regulation even at 50 μg/ml)

Compound: CCOc1ccc(Cc2nccc3cc(OCC)c(OCC)cc23)cc1OCC.Cl [compound 830, Ethaverinehydrochloride]
- hTLR8 (inhibitory effect): 11 (compounds for which there was clear down regulation only at 50 μg/ml)

Compound: COc1cc2nc(N3CCN(C(=O)C4COc5ccccc5O4)CC3)nc(N)c2cc1OC.CS(=O)(=O)O (stereo not drawn) [compound 858, Doxazosin mesylate]
- hTLR8 (inhibitory effect, antagonist score): — (compounds for which there was no clear down regulation even at 50 μg/ml)

Compound: O=c1c2c(nc(NCCO)n1-c1ccccc1)-c1ccccc1CC21CCCC1 [compound 891]
- hTLR8 (inhibitory effect): — (compounds for which there was no clear down regulation even at 50 μg/ml)

Compound: O=c1c2c(nc(NCCO)n1Cc1ccccc1)-c1ccccc1CC21CCCC1 [compound 926]
- hTLR8 (inhibitory effect): 11 (compounds for which there was clear down regulation only at 50 μg/ml)

Compound: CN1CCc2c1nc1ccccc1c2N [compound 990, 1-Methyl-2,3-dihydro-1H-pyrrolo[2,3-b]quinolin-4-ylamine]
- hTLR8 (inhibitory effect): — (compounds for which there was no clear down regulation even at 50 μg/ml)

Compound: CN1CCc2c1nc1ccccc1c2NC(=O)CN1CCCCCC1 [compound 1003]
- hTLR8 (inhibitory effect): — (compounds for which there was no clear down regulation even at 50 μg/ml)

Compound: Cc1ccc2nc3c(c(N)c2c1)CCN3C [compound 1091, 1,6-Dimethyl-2,3-dihydro-1H-pyrrolo[2,3-b]quinolin-4-ylamine]
- hTLR8 (inhibitory effect): 11 (compounds for which there was clear down regulation only at 50 μg/ml)

Compound: Cc1ccc(-n2c(NCCO)nc3c(c2=O)C2(CCCCC2)Cc2ccccc2-3)cc1 [compound 1137]
- hTLR8 (inhibitory effect): 11 (compounds for which there was clear down regulation only at 50 μg/ml)

Compound: CN1CCc2c1nc1ccc(Br)cc1c2N [compound 1142, 6-Bromo-1-methyl-2,3-dihydro-1H-pyrrolo[2,3-b]quinolin-4-ylamine]
- hTLR8 (inhibitory effect): 11 (compounds for which there was clear down regulation only at 50 μg/ml)

Compound: O=C1c2ccc(S(=O)(=O)c3ccc4c(c3)C(=O)N(c3ccccn3)C4=O)cc2C(=O)N1c1ccccn1 [compound 1163]
- hTLR8 (inhibitory effect): 11 (compounds for which there was clear down regulation only at 50 μg/ml)

Compound: CN1CCCCc2c1nc1ccccc1c2N [compound 1185, 1-Methyl-2,3,4,5-tetrahydro-1H-azepino[2,3-b]quinolin-6-ylamine]
- hTLR8 (inhibitory effect): — (compounds for which there was no clear down regulation even at 50 μg/ml)

Compound: CN1CCc2c1nc1ccccc1c2NC(=O)CN1CCN(c2ccccc2)CC1 [compound 1212]
- hTLR8 (inhibitory effect): — (compounds for which there was no clear down regulation even at 50 μg/ml)

Compound: Cn1c(NN)nc2c(c1=O)C1(CCCC1)Cc1ccccc1-2 [compound 1213]
- hTLR8 (inhibitory effect): — (compounds for which there was no clear down regulation even at 50 μg/ml)

Compound: Nc1c2c(nc3ccccc13)N(Cc1ccccc1)CC2 [compound 1217, 1-Benzyl-2,3-dihydro-1H-pyrrolo[2,3-b]quinolin-4-ylamine]
- hTLR8 (inhibitory effect): 11 (compounds for which there was clear down regulation only at 50 μg/ml)

Compound: CCCCCCN(CCCCCC)CC(=O)Nc1c2c(nc3ccccc13)N(C)CC2 [compound 1224]
- hTLR8 (inhibitory effect): 12 (compounds for which there was clear down regulation at 5 μg/ml and 50 μg/ml)

Compound: O=C(CN1CCCC1)Nc1c2c(nc3ccccc13)N(c1ccccc1)CC2 [compound 1244]
- hTLR8 (inhibitory effect): 11 (compounds for which there was clear down regulation only at 50 μg/ml)

Compound: NNc1nc2c(c(=O)n1C1CCCC1)C1(CCCC1)Cc1ccccc1-2 [compound 1248]
- hTLR8 (inhibitory effect): 11 (compounds for which there was clear down regulation only at 50 μg/ml)

Compound: NNc1nc2c(c(=O)n1-c1ccccc1)C1(CCCC1)Cc1ccccc1-2 [compound 1320]
- hTLR8 (inhibitory effect): — (compounds for which there was no clear down regulation even at 50 μg/ml)

Compound: O=c1[nH]c(NCCO)nc2c1C1(CCCC1)Cc1ccccc1-2 [compound 1322]
- hTLR8 (inhibitory effect): — (compounds for which there was no clear down regulation even at 50 μg/ml)

Compound: CCCCCCCCCCCC(=O)Nc1c2c(nc3ccccc13)N(C)CC2 [compound 1334]
- hTLR8 (inhibitory effect): — (compounds for which there was no clear down regulation even at 50 μg/ml)

Compound: O=C1c2ccc(Oc3ccc(S(=O)(=O)c4ccc(Oc5ccc6c(c5)C(=O)N(c5ccccn5)C6=O)cc4)cc3)cc2C(=O)N1c1ccccn1 [compound 1367]
- hTLR8 (inhibitory effect): 11 (compounds for which there was clear down regulation only at 50 μg/ml)

Compound: CCN(CC)CCCC(C)Nc1nc(/C=C/c2ccc(Cl)cc2)nc2cc3ccccc3cc12 (stereo not drawn) [compound 2000]
- hTLR8 (inhibitory effect, antagonist score): 11 (compounds for which there was clear down regulation only at 50 μg/ml)
